Test results as given in US9206193B2, “Substituted norindenoisoquinolines, syntheses thereof, and methods of use” (PURDUE RESEARCH FOUNDATION, priority 2010, dated 2015).
Read-outs that look alike come from different tables or passages of the source.

What was measured:
SF-539 = assay: NCI DTP antiproliferative screen, CNS SF-539; type: cell-based, human
Protocol: (§1) The norindenoisoquinolines are examined for antiproliferative activity in the National Cancer Institute's Developmental Therapeutics Program (DTP) (Boyd & Paull, Some Practical Considerations and Applications of the National Cancer Institute In Vitro Anticancer Drug Discovery Screen. Drug Development Res. 1995, 34, 91-109; Shoemaker, The NCI60 Human Tumour Cell Line Anticancer Drug screen. Nat. Rev. Cancer 2006, 6, 813-823). Each compound is evaluated against approximately 55 human cell lines representing leukemia, melanoma, and cancers of the lung, colon, brain, breast, ovary, prostate and kidney. After an initial one-dose assay at a single high dose (10^−5 M), only compounds that satisfy the pre-determined threshold inhibition criteria are selected for further 5-dose assay.

HOP-62 = assay: NCI DTP antiproliferative screen, lung HOP-62; type: cell-based, human
Protocol: as §1

UACC-62 = assay: NCI DTP antiproliferative screen, melanoma UACC-62; type: cell-based, human
Protocol: as §1

Human recombinant Top1 = target: T1, Human recombinant Top1 (Homo sapiens, UniProt P11387); assay: Topoisomerase I-mediated DNA cleavage reactions; type: biochemical; parameters: key to Top1 cleavage: 0: no activity; +: weak activity; ++: similar activity as CPT; +++ and ++++: greater activity than CPT; ++++: similar activity as 1 uM CPT; conditions: for Top1 cleavage: semiquantitative, relative to 1 uM CPT, concentrations ranging up to 10 uM
T1 construct: made in house
T1 sequence (P11387 1-765): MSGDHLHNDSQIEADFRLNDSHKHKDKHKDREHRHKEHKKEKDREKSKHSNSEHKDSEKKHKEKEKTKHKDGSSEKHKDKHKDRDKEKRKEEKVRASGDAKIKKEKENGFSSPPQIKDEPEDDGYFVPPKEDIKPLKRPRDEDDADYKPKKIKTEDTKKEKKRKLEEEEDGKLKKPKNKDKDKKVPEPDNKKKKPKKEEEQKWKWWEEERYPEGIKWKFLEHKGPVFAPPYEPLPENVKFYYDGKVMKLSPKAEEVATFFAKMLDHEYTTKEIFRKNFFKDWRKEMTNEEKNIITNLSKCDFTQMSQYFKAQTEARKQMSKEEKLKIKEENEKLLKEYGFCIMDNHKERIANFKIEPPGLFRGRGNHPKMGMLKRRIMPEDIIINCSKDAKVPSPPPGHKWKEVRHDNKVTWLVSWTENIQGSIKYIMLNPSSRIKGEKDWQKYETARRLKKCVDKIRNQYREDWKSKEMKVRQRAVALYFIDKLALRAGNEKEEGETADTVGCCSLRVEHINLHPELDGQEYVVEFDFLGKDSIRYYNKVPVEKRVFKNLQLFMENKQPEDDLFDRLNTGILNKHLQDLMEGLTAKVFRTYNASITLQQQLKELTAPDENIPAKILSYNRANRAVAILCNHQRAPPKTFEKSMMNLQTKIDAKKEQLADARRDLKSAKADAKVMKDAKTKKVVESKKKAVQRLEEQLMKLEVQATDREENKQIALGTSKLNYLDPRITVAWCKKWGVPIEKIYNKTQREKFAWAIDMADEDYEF
Protocol: Norindenoisoquinolines 14a-f are examined for induction of Top1-mediated DNA cleavage using a 117-bp DNA oligonucleotide encompassing the previously identified Top1 cleavage sites in the 161-bp fragment from pBluescript SK(−) phagemid DNA (Dexheimer & Pommier DNA Cleavage Assay for the Identification of Topoisomerase I Inhibitors. Nat. Protocol. 2008, 3, 1736-1750).
Human recombinant Top1 was purified from baculovirus as previously described.^46 DNA cleavage reactions were prepared as previously reported with the exception of the DNA substrate.^13 Briefly, a 117-bp DNA oligonucleotide (Integrated DNA Technologies) encompassing the previously identified Top1 cleavage sites in the 161-bp fragment from pBluescript SK(−) phagemid DNA was employed. This 117-bp oligonucleotide contains a single 5′-cytosine overhang, which was 3′-end labeled by fill-in reaction with [α-^32P]-dGTP in React 2 buffer (50 mM Tris-HCl, pH 8.0, […], 50 mM NaCl) with 0.5 units of DNA polymerase I (Klenow fragment, New England BioLabs). Unincorporated ^32P-dGTP was removed using mini Quick Spin DNA columns (Roche, Indianapolis, Ind.), and the eluate containing the 3′-end-labeled DNA substrate was collected. Approximately 2 nM of radiolabeled DNA substrate was incubated with recombinant Top1 in 20 μL of reaction buffer [10 mM Tris-HCl (pH 7.5), 50 mM KCl, 5 mM MgCl2, 0.1 mM EDTA, and 15 μg/ml BSA] at 25° C. for 20 min in the presence of various concentrations of compounds. The reactions were terminated by adding SDS (0.5% final concentration) followed by the addition of two volumes of loading dye (80% formamide, 10 mM sodium hydroxide, 1 mM sodium EDTA, 0.1% xylene cyanol, and 0.1% bromphenol blue). Aliquots of each reaction were subjected to 20% denaturing PAGE. Gels were dried and visualized by using a Phosphoimager and ImageQuant software (Molecular Dynamics). For simplicity, cleavage sites were numbered as previously described in the 161-bp fragment.

HCT-116 = assay: NCI DTP antiproliferative screen, colon HCT-116; type: cell-based, human
Protocol: as §1

MDA-MB-435 = assay: NCI DTP antiproliferative screen, breast MDA-MB-435; type: cell-based; conditions: Homo sapiens
Protocol: as §1

[1] = test system: all human cancer cell lines successfully tested; assay: NCI DTP antiproliferative screen, mean graph midpoint; type: cell-based; conditions: average GI50 of all cell lines tested; values outside 10^-8 to 10^-4 M taken as the limits
Protocol: as §1

DU-145 = assay: NCI DTP antiproliferative screen, prostate DU-145; type: cell-based, human
Protocol: as §1

SN12C = assay: NCI DTP antiproliferative screen, renal SN12C; type: cell-based, human
Protocol: as §1

OVCAR-3 = assay: NCI DTP antiproliferative screen, ovarian OVCAR-3; type: cell-based, human
Protocol: as §1

[2] = 117-bp DNA substrate, gel of FIG. 2
[3] = Homo sapiens, read-out: Cytotoxicity GI50 CNS SF-539
[4] = Homo sapiens, HOP-62, read-out: Cytotoxicity GI50 Lung HOP-62
[5] = Homo sapiens, UACC-62, read-out: Cytotoxicity GI50 Melanoma UACC-62
[6] = Homo sapiens, HCT-116, read-out: Cytotoxicity GI50 Colon HCT-116
[7] = MDA-MB-435, read-out: Cytotoxicity GI50 Breast MDA-MB-435
[8] = Homo sapiens, DU-145, read-out: Cytotoxicity GI50 Prostate DU-145
[9] = Homo sapiens, OVCAR-3, read-out: Cytotoxicity GI50 Ovarian OVCAR-3
[10] = Homo sapiens, SN12C, read-out: Cytotoxicity GI50 Renal SN12C

Row | Structure (SMILES) | 44 (C-G) cleavage site in Top1-mediated DNA cleavage pattern (Human recombinant Top1; [2]) | Top1 cleavage (Human recombinant Top1) | MGM (mean graph midpoint for growth inhibition) [1] | 106 (C-T) cleavage site in Top1-mediated DNA cleavage pattern (Human recombinant Top1; [2]) | GI50 (SF-539; [3]) | GI50 (HOP-62; [4]) | GI50 (UACC-62; [5]) | GI50 (HCT-116; [6]) | melting point | GI50 (MDA-MB-435; [7]) | GI50 (DU-145; [8]) | GI50 (OVCAR-3; [9]) | GI50 (SN12C; [10]) | other results
1 | CC[C@@]1(O)C(=O)OCc2c1cc1n(c2=O)Cc2cc3ccccc3nc2-1 [CPT, camptothecin, reference compound] | not | ++++ | 0.0405 µM | – | – | – | – | – | – | – | – | – | – | GI50 (SF-539; Homo sapiens, Table 2, read-out: Cytotoxicity GI50 CNS SF-539): 0.01 µM; GI50 (HOP-62; Homo sapiens, HOP-62, Table 2, read-out: Cytotoxicity GI50 Lung HOP-62): 0.01 µM; GI50 (UACC-62; Homo sapiens, UACC-62, Table 2, read-out: Cytotoxicity GI50 Melanoma UACC-62): 0.01 µM; 37 (T-G) cleavage site in Top1-mediated DNA cleavage pattern (Human recombinant Top1; [2]): observed; GI50 (HCT-116; Homo sapiens, HCT-116, Table 2, read-out: Cytotoxicity GI50 Colon HCT-116): 0.03 µM; GI50 (MDA-MB-435; MDA-MB-435, Table 2, read-out: Cytotoxicity GI50 Breast MDA-MB-435): 0.04 µM; GI50 (DU-145; Homo sapiens, DU-145, Table 2, read-out: Cytotoxicity GI50 Prostate DU-145): 0.01 µM; GI50 (SN12C; Homo sapiens, SN12C, Table 2, read-out: Cytotoxicity GI50 Renal SN12C): 0.02 µM
2 | COc1cc2cnc3c(c2cc1OC)Cc1cc2c(cc1-3)OCO2 [Compound 5, reference compound] | seen | – | – | observed | – | – | – | – | – | – | – | – | – | 97 (T-A) cleavage site in Top1-mediated DNA cleavage pattern (Human recombinant Top1; [2]): observed
3 | COc1cc2cnc3c(c2cc1OC)Cc1c-3cc2c(c1CN(C)C)OCO2 [Compound 14a, 2,3-Dimethoxy-8,9-methylenedioxy-10-(dimethylamino)methyl-11H-indeno[1,2-c]isoquinoline] | – | +++ | 4.4 µM | – | 14 µM | 6.7 µM | 12 µM | 1.5 µM | 205 to 207 °C | 16 µM | 1.6 µM | 1.4 µM | 13 µM | –
4 | COc1cc2cnc3c(c2cc1OC)Cc1c-3cc2c(c1CN1CCCC1)OCO2 [Compound 14b, 2,3-Dimethoxy-8,9-methylenedioxy-10-(pyrrolidin-1-yl)methyl-11H-indeno[1,2-c]isoquinoline] | – | +++ | 2.3 µM | – | 1.9 µM | 1.2 µM | 6.7 µM | 0.64 µM | 210 °C (dec.) | 2.5 µM | 0.73 µM | 0.73 µM | 4.4 µM | –
5 | COc1cc2cnc3c(c2cc1OC)Cc1c-3cc2c(c1CN1CCN(C)CC1)OCO2 [Compound 14d, 2,3-Dimethoxy-8,9-methylenedioxy-10-(4-methylpiperazin-1-yl)methyl-11H-indeno[1,2-c]isoquinoline] | – | ++ | – | absent | – | – | – | – | 296 °C (dec.) | – | – | – | – | –
6 | COc1cc2cnc3c(c2cc1OC)Cc1c-3cc2c(c1CN1CCOCC1)OCO2 [Compound 14e, 2,3-Dimethoxy-8,9-methylenedioxy-10-(4-morpholino)methyl-11H-indeno[1,2-c]isoquinoline] | – | + | 2.4 µM | absent | – | – | – | – | – | – | – | – | – | GI50 (SF-539): 1.8 µM; GI50 (HOP-62): 2.1 µM; GI50 (UACC-62): ≥ 100 µM; GI50 (HCT-116): 1.4 µM; GI50 (DU-145): 1.9 µM; GI50 (OVCAR-3): 1.7 µM; GI50 (SN12C): 2.3 µM
7 | COc1cc2cnc3c(c2cc1OC)Cc1c-3cc2c(c1CN(C)CCN(C)C)OCO2 [Compound 14f, 2,3-Dimethoxy-8,9-methylenedioxy-10-(N,N,N′-trimethylethylenediamino)methyl-11H-indeno[1,2-c]isoquinoline] | – | – | 6.3 µM | – | – | – | – | – | – | – | – | – | – | GI50 (SF-539): 11 µM; GI50 (HOP-62): 1.5 µM; GI50 (UACC-62): 0.73 µM; GI50 (HCT-116): 1.9 µM; GI50 (DU-145): 3.4 µM; GI50 (OVCAR-3): 7.4 µM; GI50 (SN12C): > 100 µM
8 | COc1cc2cnc3c(c2cc1OC)Cc1c-3cc2c(c1C)OCO2 [Compound 15, 2,3-Dimethoxy-8,9-methylenedioxy-10-methyl-11H-indeno[1,2-c]isoquinoline] | seen | ++ | 11.8 µM | observed | 4.6 µM | 7.3 µM | 0.7 µM | 0.89 µM | 272 to 274 °C (dec.) | > 100 µM | > 100 µM | 5.8 µM | > 100 µM | 97 (T-A) cleavage site in Top1-mediated DNA cleavage pattern (Human recombinant Top1; [2]): observed
9 | COc1cc2c3c(n(CCCNCCO)c(=O)c2cc1OC)-c1cc2c(cc1C3=O)OCO2 [MJ-III-65, reference compound] | seen | – | – | – | – | – | – | – | – | – | – | – | – | 62 (C-A) cleavage site in Top1-mediated DNA cleavage pattern (Human recombinant Top1; [2]): observed
